Measurements as given in article PMC11239673, “Structural basis for the bi-specificity of USP25 and USP28 inhibitors” (EMBO Reports, 2024).
Where “and” joins values, the source holds several entries; their conditions need not be identical. Equal values may be shown once. Read-outs that look alike come from different tables or passages of the source.

Key:
USP28Δtip D265S = target: T1, USP28Δtip D265S (Homo sapiens, UniProt Q96RU2, D265S/INS458SGSG); experiment: Ub-Rho110 dose–response assay, USP28Δtip D265S; assay type: biochemical; settings: for IC50: USP28 - D265S
T1 sequence (Q96RU2 with tags, fused parts or gaps D265S/INS458SGSG): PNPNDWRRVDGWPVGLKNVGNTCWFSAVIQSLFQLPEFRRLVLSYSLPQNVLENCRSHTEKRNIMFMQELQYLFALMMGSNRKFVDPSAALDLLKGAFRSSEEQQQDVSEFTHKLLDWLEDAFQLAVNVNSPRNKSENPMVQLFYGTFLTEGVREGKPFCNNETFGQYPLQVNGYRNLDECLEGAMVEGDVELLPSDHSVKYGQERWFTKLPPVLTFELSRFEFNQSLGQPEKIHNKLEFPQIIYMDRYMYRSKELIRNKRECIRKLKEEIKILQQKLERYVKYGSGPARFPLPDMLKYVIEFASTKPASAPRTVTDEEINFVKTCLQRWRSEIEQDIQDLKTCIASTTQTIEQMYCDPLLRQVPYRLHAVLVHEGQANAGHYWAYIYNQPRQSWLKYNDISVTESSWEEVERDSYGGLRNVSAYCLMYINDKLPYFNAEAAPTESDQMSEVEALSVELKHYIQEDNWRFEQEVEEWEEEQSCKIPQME

USP25Δtip H268A = target: T2, USP25Δtip H268A (Homo sapiens, UniProt Q9UHP3, DEL465-537/H268A/INS464GSGSGS); experiment: Ub-Rho110 dose–response assay, USP25Δtip H268A; assay type: biochemical
T2 construct: 6xHis or thioredoxin-6xHis (N, cleaved yes); made in house; host or cells: E. coli BL21star (DE3)
T2 sequence (Q9UHP3 with tags, fused parts or gaps H268A/DEL465-477/P478G/DEL482-535/A536G/P537S limits assumed): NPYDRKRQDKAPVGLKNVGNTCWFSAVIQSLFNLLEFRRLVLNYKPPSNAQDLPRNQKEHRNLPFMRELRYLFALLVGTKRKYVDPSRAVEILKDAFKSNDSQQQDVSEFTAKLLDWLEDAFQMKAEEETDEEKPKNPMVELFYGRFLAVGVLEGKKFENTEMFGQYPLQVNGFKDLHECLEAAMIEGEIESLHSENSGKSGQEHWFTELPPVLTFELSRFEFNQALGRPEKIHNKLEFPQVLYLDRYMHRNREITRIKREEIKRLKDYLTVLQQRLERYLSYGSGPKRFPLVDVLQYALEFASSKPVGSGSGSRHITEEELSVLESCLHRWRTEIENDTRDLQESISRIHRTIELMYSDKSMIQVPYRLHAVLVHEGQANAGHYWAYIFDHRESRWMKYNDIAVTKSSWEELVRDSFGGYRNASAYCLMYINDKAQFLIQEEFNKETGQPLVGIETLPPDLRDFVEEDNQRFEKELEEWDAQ

[1] = read-out: relative inhibition [%] - USP28 - D265S

For `Cc1ccc2c(N)c(C(=O)NC3CCc4cc(N5CC6CCC(C5)N6)ccc4C3)sc2n1` (centres unmarked) [FT206], the “t-test vs. USP28 WT control - D265S” value (USP28Δtip D265S) was 4.502E-03, the IC50 (USP28Δtip D265S; mean of replicates, read-out: IC50, mean and SD) was 310 nM and the IC50 (USP28Δtip D265S; single replicates, read-out: IC50 of each replicate curve (unlabelled line above mean and SD)) was 288 nM and 267 nM and 284 nM and 266 nM and 437 nM. For the same molecule, the inhibition at 11.11 µM (USP28Δtip D265S; [1]) was 99.7%, the inhibition at 33.33 µM (USP28Δtip D265S; [1]) was 100% and the inhibition at 100 µM (USP28Δtip D265S; [1]) was 101%. The inhibition at […] (USP28Δtip D265S; [1]) was 97.8% and 94.4% and 33.5% and 30.9%, the “t-test vs. USP25 WT control - H268A” value (USP25Δtip H268A; p value, inhibitor IC50 on USP25 H268A compared with USP25 WT) was 1.749E-05 and the inhibition at 11.11 µM (USP25Δtip H268A; read-out: relative inhibition [%] - USP25 - H268A) was 29.7%. It also gave an inhibition at 33.33 µM (USP25Δtip H268A; read-out: relative inhibition [%] - USP25 - H268A, inhibitor 33.33 µM, single replicates) of 55.5% and an inhibition at 100 µM (USP25Δtip H268A; read-out: relative inhibition [%] - USP25 - H268A, inhibitor 100.00 µM, single replicates) of 78.2%.
